Data published in patent publication US5376684A, “Aminoalkanephosphinic acids and salts thereof” (Ciba-Geigy Corporation, priority 1991, dated 1994).

Legend:
epileptic Wistar rats = settings: cited from earlier work
pyramidal cells = assay: Penicillin-induced "epileptic" hippocampus section preparation; format: cell-based; settings: concentration of 6 μM
Protocol: The novel GABAB -antagonists according to the invention interact at the GABAB -receptor with IC50 values of approximately 10^-8 M (mol/l) and above in the corticocerebral membranes of rats. […] The antagonism towards baclofen can also be shown in vitro in electrophysiological models, for example in the penicillin-induced "epileptic" hippocampus section preparation in which baclofen in a concentration of 6 μM (micromol/liter) inhibits "epilepsy-like" discharges from pyramidal cells. The compounds according to the invention act as antagonists of baclofen action in concentrations of about 10 to about 100 μM (micromol/liter). In vivo the antagonism can be shown by ionto-phoresis of baclofen in rat cerebral cortex and by systemic use of antagonists in doses of from 10 to 100 mg/kg. In doses of about 30 mg/kg, antagonism occurs towards the muscle-relaxant action of baclofen, which is measured in the Rotarod model.

Structure (SMILES)	doses that reduce the spike and wave discharges in dependence upon dosage (epileptic Wistar rats) [mg/kg]	other results
CN1C(=O)CN=C(c2ccccc2)c2cc(Cl)ccc21 [diazepam]	≥ 0.5	
NCC(CC(=O)O)c1ccc(Cl)cc1 (centres unmarked) [baclofen]		effect on "epilepsy-like" discharges from pyramidal cells (pyramidal cells): inhibits
O=C1NC(=O)C(c2ccccc2)(c2ccccc2)N1 [phenytoin]		effect on spike and wave discharges / attacks (epileptic Wistar rats): ineffective or worsen the attacks at higher doses
NC(=O)N1c2ccccc2C=Cc2ccccc21 [Carbamazepine]		effect on spike and wave discharges / attacks (epileptic Wistar rats): ineffective or worsen the attacks at higher doses
CN1C(=O)OC(C)(C)C1=O [trimethadione]	≥ 50	
CCCC(CCC)C(=O)[O-].[Na+] [sodium valproate]	≥ 50	
CCC1(c2ccccc2)C(=O)NC(=O)NC1=O [Phenobarbitone]		effect at 20 mg/kg (epileptic Wistar rats; 20 mg/kg): ineffective
CCC1(C)CC(=O)NC1=O (centres unmarked) [ethosuximide]	≥ 25	
